Values quoted from earlier work as cited in US20210145841A1, “ENHANCEMENT OF DELIVERY OF LIPOPHILIC ACTIVE AGENTS ACROSS THE BLOOD-BRAIN BARRIER AND METHODS FOR TREATING CENTRAL NERVOUS SYSTEM DISORDERS” (POVIVA CORP., priority 2018, published 2021).

Details: in vivo

human pulmonary uptake: 60%
SMILES: CC1=CC[C@H]2C[C@@H]1C2(C)C [α-Pinene, (1S,5S)-2,6,6-Trimethylbicyclo[3.1.1]hept-2-ene]
